From US20070161585A1, “Immunopotentiator and method for enhancing immunoactivity using the same” (priority 2003, published 2007)

Columns and labels:
[1] = tested on: inflammatory cytokines (IL-6, IL-12 and TNF-α) in the serum; assay: Serum inflammatory cytokines by ELISA after single intraperitoneal administration of ODN to mice; assay type: in vivo; details: Balb/c mouse; for IL-6 concentration in the serum / IL-12 concentration in the serum / TNF-α concentration in the serum: 10 nmol ODN in 400 μl saline, 2 hours later, mean; for Induction of inflammatory cytokines (in words): 10 nmol ODN, serum 2 hours later
Procedure: 10 nmol of each of GATC-dA (sequence containing a GATC sequence), GATC-m^6A (sequence containing a Gm^6ATC sequence), CpG-ODN1668 (sequence containing a non-methylated CpG sequence) and GpC-ODN1720 (sequence containing a […]) shown in Table 1 was collected, and dissolved in 400 μl of a physiological saline solution. The resulting solution was intraperitoneally administered to a Balb/c mouse (male, 6 weeks old; Sankyo Labo-Service). Two hours later, concentrations of inflammatory cytokines (IL-6, IL-12 and TNF-α) in the serum were measured by an enzyme-linked immunosorbent assay (ELISA; AN'ALIZA, Genzyme TECHNE corp.).
Two hours after the administration, the blood was collected from the heart of the mouse, and allowed to stand overnight at 4° C. The serum was collected therefrom by centrifugation (20,000 g, 20 minutes, 4° C.).
By the way, the results shown in FIGS. 1 to 3 are expressed in terms of a mean value±standard deviation. In the graphs, two asterisks indicate “P<0.01”, and three asterisks “P<0.005 (n=3 (IL-12), 4 (IL-6, TNF-α)))”.

[2] = tested on: inflammatory cytokines in the serum of the mouse; assay: Serum inflammatory cytokines by ELISA after simultaneous administration of Gm^6ATC sequence and non-methylated CpG sequence to mice; assay type: in vivo; details: 5 nmol CpG-ODN1668 alone or mixed with equimolar second ODN, 400 μl saline, 2 hours later, mean (n=4)
Procedure: Accordingly, the Gm^6ATC sequence and CpG-ODN1668 containing the non-methylated sequence were simultaneously administered to a mouse to confirm an effect of inducting inflammatory cytokines. Regarding the doses of Gm^6ATC, GATC-dA and CpG-ODN1668, 5 nmol of CpG-ODN1668 was mixed with an equimolar amount of Gm^6ATC or GATC-dA, and the mixture was dissolved in 400 μl of a physiological saline solution. The resulting solution was administered to a mouse. Two hours later, the inflammatory cytokines in the serum of the mouse were measured by ELISA to confirm induction amounts.
The results shown in FIGS. 4 to 6 are expressed in terms of a mean value±standard deviation (n=4). In the graphs, one asterisk indicates “P<0.05”, two asterisks “P<0.01” and three asterisks “P<0.005”.

Substance | IL-6 concentration in the serum [1] [pg/mL] | IL-12 concentration in the serum [1] [pg/mL] | TNF-α concentration in the serum [1] [pg/mL] | Induction of inflammatory cytokines (in words) [1] | IL-6 concentration in the serum [2] [pg/mL] | IL-12 concentration in the serum [2] [pg/mL] | TNF-α concentration in the serum [2] [pg/mL]
CpG-ODN1668: phosphothioate-stabilized oligonucleotide, non-methylated CpG motif, TCCATGACGTTCCTGATGCT (DNA TCCATGACGTTCCTGATGCT; phosphorothioate backbone, chemistry not fully specified) | 2100 | 1000 | 1500 | very strong inflammatory cytokines were induced | 530 | 730 | 760
GATC-dA: phosphothioate-stabilized oligonucleotide, non-m^6A motif, TCCATGATCTTCCTGATGCT (DNA TCCATGATCTTCCTGATGCT; phosphorothioate backbone, chemistry not fully specified) | 14 | 48 | 92 |  |  |  | 
GpC-ODN1720: phosphothioate-stabilized oligonucleotide, non CpG motif, CC ATG AGC TTC CTG ATG CT (DNA CCATGAGCTTCCTGATGCT; phosphorothioate backbone, chemistry not fully specified) | 28 | 33 | 47 | little induced |  |  | 
